Assay results as given in patent US20140107219A1, “LOCAL ANAESTHETIC” (VITA (EUROPE) LIMITED, priority 2011, published 2014).
Several values for one entry are separate records, joined by “and”; a condition that tells them apart may be missing. Equal values may be shown once. Read-outs that look alike come from different tables or passages of the source.

What was measured:
[1] = biological target: T1, hNav1.2 sodium channels (SCN2A gene, expressed in CHO cells) (Homo sapiens, UniProt Q99250); experiment: Automated patch clamp (PatchXpress 7000A), cloned hNav1.2 in CHO cells, tonic and phasic; format: cell-based; conditions: for inhibition at 2000 µM: CHO
T1 construct: expressed in transfected cells; host or cells: CHO cells
Excerpt: (§1) 1. Cloned hNav1.2 sodium channels (SCN2A gene, expressed in CHO cells). 2. Cloned hNav1.6 sodium channels (SCN8A gene, expressed in CHO cells).

[2] = system: isolated sciatic nerve of the rat; experiment: Evoked compound action potential (CAP) of the isolated rat sciatic nerve in a three-chamber bath (ex vivo): inhibition and recovery after washout; conditions: for IT100 / IT0: 1.41 mg/mL
[3] = system: gastrocnemius muscle; experiment: In vivo muscle CAP (mCAP, EMG integral) after intramuscular injection, gastrocnemius muscle; parameters: species or system rat; conditions: 10.8 mg/kg intramuscular
[4] = biological target: T2, hNav1.6 sodium channels (SCN8A gene, expressed in CHO cells) (Homo sapiens, UniProt Q9UQD0); experiment: Automated patch clamp (PatchXpress 7000A), cloned hNav1.6 in CHO cells, tonic and phasic; format: cell-based; conditions: for inhibition at 2000 µM: CHO; for IC50: FIG. 42
T2 construct: expressed in transfected cells; host or cells: CHO cells
Experimental: In this example, the in vitro effects of 2-heptanone on the following ion channels were evaluated at room temperature using the PatchXpress 7000A (Molecular Devices), an automatic parallel patch clamp system:
as §1
The effects of 2-heptanone were evaluated at 0.73, 1.46, 2.19, and 2.92 mg/ml with each concentration tested in two cells (n=2). The duration of exposure to each concentration of 2-heptanone was 5 minutes. Tables 2 to 5 show the individual results from each concentration followed by individual concentration-response curves. The positive controls (Table 6) confirm the sensitivity of the test systems to inhibition.
. Br. J. Pharmacol. 164, 719-730). […]

[5] = 2 mM (0.46 mg/mL), single cells

T2 sequence (Q9UQD0 whole entry): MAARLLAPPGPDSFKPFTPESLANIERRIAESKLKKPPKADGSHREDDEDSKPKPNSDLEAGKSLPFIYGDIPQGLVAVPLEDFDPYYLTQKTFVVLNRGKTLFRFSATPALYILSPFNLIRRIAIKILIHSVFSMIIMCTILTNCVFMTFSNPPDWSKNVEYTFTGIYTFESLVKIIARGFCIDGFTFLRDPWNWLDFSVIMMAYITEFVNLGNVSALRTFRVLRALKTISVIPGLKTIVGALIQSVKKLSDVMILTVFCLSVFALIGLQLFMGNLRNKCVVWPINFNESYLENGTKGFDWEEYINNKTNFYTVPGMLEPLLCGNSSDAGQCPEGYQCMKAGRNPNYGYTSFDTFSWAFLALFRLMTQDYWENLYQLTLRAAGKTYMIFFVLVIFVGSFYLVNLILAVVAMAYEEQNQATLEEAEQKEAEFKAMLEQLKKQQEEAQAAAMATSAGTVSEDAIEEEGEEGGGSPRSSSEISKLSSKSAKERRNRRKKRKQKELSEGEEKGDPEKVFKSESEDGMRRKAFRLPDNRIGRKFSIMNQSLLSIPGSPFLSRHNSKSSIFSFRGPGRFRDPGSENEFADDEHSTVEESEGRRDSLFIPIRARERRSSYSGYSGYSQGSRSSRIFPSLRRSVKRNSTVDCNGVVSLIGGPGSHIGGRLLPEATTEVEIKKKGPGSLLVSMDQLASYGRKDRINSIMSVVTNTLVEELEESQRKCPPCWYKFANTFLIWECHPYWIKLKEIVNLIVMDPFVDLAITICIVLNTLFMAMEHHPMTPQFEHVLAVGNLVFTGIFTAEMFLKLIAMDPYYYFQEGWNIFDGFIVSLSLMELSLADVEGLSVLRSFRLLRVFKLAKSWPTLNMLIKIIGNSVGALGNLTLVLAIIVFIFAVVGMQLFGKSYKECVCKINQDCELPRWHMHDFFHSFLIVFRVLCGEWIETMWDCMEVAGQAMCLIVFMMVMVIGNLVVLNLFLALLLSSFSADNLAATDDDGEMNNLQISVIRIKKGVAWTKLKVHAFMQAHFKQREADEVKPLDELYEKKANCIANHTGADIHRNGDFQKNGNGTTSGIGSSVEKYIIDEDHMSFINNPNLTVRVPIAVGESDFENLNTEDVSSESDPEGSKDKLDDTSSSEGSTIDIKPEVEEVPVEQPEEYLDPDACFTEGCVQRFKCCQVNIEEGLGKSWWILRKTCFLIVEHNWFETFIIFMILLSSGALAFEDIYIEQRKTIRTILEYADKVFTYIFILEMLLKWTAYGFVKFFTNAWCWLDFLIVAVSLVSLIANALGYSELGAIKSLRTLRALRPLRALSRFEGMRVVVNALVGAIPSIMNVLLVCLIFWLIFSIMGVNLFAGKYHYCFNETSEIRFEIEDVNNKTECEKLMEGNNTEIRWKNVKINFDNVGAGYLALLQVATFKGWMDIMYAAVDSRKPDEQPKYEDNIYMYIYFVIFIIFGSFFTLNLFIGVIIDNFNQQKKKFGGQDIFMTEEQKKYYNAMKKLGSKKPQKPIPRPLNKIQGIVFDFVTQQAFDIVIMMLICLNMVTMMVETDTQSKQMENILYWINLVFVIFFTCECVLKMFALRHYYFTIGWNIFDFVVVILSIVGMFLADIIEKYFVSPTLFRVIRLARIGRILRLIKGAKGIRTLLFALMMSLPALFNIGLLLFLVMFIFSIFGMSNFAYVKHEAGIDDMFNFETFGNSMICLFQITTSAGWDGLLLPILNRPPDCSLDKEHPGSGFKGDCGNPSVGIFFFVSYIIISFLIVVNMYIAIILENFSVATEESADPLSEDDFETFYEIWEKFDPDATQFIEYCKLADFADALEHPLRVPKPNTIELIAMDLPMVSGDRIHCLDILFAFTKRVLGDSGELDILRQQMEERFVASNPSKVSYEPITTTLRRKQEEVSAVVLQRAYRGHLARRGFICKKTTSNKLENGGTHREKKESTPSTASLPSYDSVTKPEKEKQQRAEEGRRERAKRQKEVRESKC
T1 sequence (Q99250 whole entry): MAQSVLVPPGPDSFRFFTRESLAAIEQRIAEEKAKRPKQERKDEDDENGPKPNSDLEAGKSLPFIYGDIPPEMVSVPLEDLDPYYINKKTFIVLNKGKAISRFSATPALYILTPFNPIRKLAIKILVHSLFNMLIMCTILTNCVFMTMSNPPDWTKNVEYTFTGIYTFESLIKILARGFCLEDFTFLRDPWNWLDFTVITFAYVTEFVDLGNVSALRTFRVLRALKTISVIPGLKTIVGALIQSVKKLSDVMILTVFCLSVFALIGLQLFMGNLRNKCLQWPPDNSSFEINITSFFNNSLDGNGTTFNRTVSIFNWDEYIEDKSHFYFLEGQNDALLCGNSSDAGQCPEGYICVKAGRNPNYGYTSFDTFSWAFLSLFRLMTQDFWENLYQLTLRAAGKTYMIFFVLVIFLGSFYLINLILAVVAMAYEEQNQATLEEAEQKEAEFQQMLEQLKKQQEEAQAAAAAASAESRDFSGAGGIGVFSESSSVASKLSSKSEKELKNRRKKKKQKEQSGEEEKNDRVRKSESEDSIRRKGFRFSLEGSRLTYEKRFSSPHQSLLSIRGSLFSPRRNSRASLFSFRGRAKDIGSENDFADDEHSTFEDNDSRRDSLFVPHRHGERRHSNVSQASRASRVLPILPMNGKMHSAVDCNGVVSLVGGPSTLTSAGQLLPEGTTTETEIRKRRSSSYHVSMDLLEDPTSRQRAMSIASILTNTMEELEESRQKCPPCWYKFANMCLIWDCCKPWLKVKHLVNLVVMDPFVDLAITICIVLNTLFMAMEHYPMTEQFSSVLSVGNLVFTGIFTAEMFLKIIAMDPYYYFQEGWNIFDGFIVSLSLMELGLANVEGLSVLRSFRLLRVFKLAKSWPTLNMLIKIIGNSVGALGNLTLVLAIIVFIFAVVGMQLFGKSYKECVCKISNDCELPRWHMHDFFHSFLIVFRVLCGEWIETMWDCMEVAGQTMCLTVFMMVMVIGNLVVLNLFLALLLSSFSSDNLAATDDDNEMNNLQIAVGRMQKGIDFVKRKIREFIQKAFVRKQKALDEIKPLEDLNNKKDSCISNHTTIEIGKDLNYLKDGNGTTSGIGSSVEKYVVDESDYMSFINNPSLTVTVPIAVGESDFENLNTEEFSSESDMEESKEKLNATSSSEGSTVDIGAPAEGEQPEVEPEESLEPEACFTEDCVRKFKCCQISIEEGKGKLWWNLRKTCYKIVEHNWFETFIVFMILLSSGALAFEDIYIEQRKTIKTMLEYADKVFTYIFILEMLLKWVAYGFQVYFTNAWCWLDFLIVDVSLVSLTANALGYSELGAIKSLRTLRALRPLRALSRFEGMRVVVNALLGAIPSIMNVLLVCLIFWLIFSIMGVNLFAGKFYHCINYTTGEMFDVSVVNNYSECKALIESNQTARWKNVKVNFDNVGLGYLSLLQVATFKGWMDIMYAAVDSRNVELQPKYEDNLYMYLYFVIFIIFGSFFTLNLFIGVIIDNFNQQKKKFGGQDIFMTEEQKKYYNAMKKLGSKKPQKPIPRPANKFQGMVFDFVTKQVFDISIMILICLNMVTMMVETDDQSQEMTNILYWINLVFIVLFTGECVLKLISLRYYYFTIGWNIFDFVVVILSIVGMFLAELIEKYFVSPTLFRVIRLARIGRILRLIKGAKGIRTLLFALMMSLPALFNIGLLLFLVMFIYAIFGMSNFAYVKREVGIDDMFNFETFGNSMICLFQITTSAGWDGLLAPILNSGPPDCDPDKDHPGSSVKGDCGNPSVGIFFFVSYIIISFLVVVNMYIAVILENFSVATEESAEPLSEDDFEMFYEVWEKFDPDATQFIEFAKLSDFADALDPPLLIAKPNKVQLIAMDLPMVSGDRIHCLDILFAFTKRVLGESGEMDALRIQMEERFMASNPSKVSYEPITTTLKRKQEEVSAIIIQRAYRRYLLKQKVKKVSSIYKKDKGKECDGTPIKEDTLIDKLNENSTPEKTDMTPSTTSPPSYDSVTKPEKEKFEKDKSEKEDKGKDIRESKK

CCN(CC)CC(=O)Nc1c(C)cccc1C [lidocaine, 2-(diethylamino)-N-(2,6-dimethylphenyl)-acetamide, reference compound]
Individual Data Points (% Inhibition), Nav1.2 (positive control) [1, 5]: 74.9% | inhibition at 2000 µM ([1]; read-out: Individual Data Points (% Inhibition), Nav1.2 (positive control), 2 mM (0.46 mg/mL), single cells): 76.1% | inhibition at 2000 µM ([1]; read-out: Mean % Inhibition of Nav1.2 (positive control), 2 mM (0.46 mg/mL)): 75.5% | IT100 / IT0 [2]: 320 ± 14.96 s | IT100 / IT0 ([2]; listed as Lidocaine): 320.3 ± 14.96 s | IT0 ([2]; 10 mM, stirred saline, individual nerves): 90 s and 150 s | IT50 (time to inhibit CAP amplitude to 50% of control) ([2]; 10 mg/mL): 12.0 ± 0.95 s | recovery of the CAP after washout, % of control ([2]; after 1.41 mg/mL): 95% | IC50 (concentration required to inhibit the CAP to 50% of control) ([2]; estimated from time-response curves, GraphPad Prism 5): 337 ± 1 µg/mL | IT50 of the integral of mCAPs [3]: 19.30 ± 1.92 s | recovery of mCAP, % of initial values after 3 h [3]: 70.3±8.67% and 70.3% | Individual Data Points (% Inhibition), Nav1.6 (positive control) [4, 5]: 59.3% | inhibition at 2000 µM ([4]; read-out: Individual Data Points (% Inhibition), Nav1.6 (positive control), 2 mM (0.46 mg/mL), single cells): 63.8% | inhibition at 2000 µM ([4]; read-out: Mean % Inhibition of Nav1.6 (positive control), 2 mM (0.46 mg/mL)): 61.5% | hNav1.6 IC50, phasic ([4]; Example 18, mean ± SEM): 70 ± 10 µg/mL | hNav1.6 IC50, tonic ([4]; Example 18, mean ± SEM): 290 ± 10 µg/mL | IC50 ([4]; read-out: Nav1.6 IC50, phasic): 260 µM | IC50 ([4]; read-out: Nav1.6 IC50, tonic): 1100 µM
